Assay results from paper PMC10977697 (PLOS ONE, 2024).
Where no end group is shown, it is not given here.

Columns and labels:
[1] = system: ApoL1; experiment: Spot phage ELISA, ApoL1; assay type: binding, human; conditions: ratio of signal for target protein over BSA background
[2] = system: PCSK9; assay type: binding, human; conditions: spot phage ELISA signal-to-noise on PCSK9

Substance	S/N [1]	S/N [2]
GCAFQFYLCKQDSDCLAGCVCGGTQSCG (also: bicyclic or more (positions not given here)) [ApoL1 EET I-II 38]	11.5	–
GCAFRRHVCKQDSDCLAGCVCDKSDGCG (also: bicyclic or more (positions not given here)) [ApoL1 EET I-II 25]	25.7	–
GCGFWKWMHGCKQDSDCLAGCVCGPNGFCG (also: bicyclic or more (positions not given here)) [ApoL1 EET I-II 46]	3.9	–
GCHFKVWWCKQDSDCLAGCVCDPAVICG (also: bicyclic or more (positions not given here)) [ApoL1 EET I-II 44]	6.1	–
GCHYRRNRWEQACKQDSDCLAGCVCQGMPKCG (also: bicyclic or more (positions not given here)) [ApoL1 EET I-II 18]	38.3	–
GCKFAKARCKQDSDCLAGCVCSPVRKCG (also: bicyclic or more (positions not given here)) [ApoL1 EET I-II 10]	42.7	–
GCKFHLWFCKQDSDCLAGCVCDPNGFCS (also: bicyclic or more (positions not given here)) [ApoL1 EET I-II 33]	15.3	–
GCKFKAHSCKQDSDCLAGCVCSGQDPGCG (also: bicyclic or more (positions not given here)) [ApoL1 EET I-II 30]	18.9	–
GCKFKCKQDSDCLAGCVCGHYDHCG (also: bicyclic or more (positions not given here)) [ApoL1 EET I-II 28]	23.6	–
GCKFKEWFCKQDSDCLAGCVCEHSQSCG (also: bicyclic or more (positions not given here)) [ApoL1 EET I-II 20]	36.0	–
GCKFKHFLCKQDSDCLAGCVCDDLQNCG (also: bicyclic or more (positions not given here)) [ApoL1 EET I-II 9]	43.0	–
GPTQSNYGMCGGIGYSGPTVCASGTTCQVLqPSTSRCLPGAS (disulfide) [PCSK9 CBD 16]	–	11.6
GPTQSNYGQCGGIGYSGPTVCASGTTCQVLWPAMSWCLPGAS (disulfide (positions not given here)) [PCSK9 CBD 15]	–	14.0
GPTQSNYGQCGGIGYSGPTVCASGTTCQVLqPAMSWCLPGAS (disulfide) [PCSK9 CBD 21]	–	18.7
GPTQSPGGICGGIGYSGPTVCASGTTCQVLSPEYSQCLPGAS (disulfide (positions not given here)) [PCSK9 CBD 19]	–	15.8
GPTQSQFGMCGGIGYSGPTVCASGTTCQVLDPTTSQCLPGAS (disulfide (positions not given here)) [PCSK9 CBD 2]	–	2.5
GPTQSTCGQCGGIGYSGPTVCASGTTCQVLWPTLSWCLPGAS (disulfide (positions not given here)) [PCSK9 CBD 27]	–	20.8
GPTQSTYGQCGGIGYSGPTVCASGTTCQVLGPALSWCLPGAS (disulfide (positions not given here)) [PCSK9 CBD 9]	–	5.2
GPTQSTYGQCGGIGYSGPTVCASGTTCQVLWPALSWCLPGAS (disulfide (positions not given here)) [PCSK9 CBD 22]	–	15.0
GPTQSTYGQCGGIGYSGPTVCASGTTCQVLWPALSWCLPGAS (disulfide (positions not given here)) [PCSK9 CBD 26]	–	21.5
GPTQSTYGRCGGIGYSGPTVCASGTTCQVLWPALSWCLPGAS (disulfide (positions not given here)) [PCSK9 CBD 4]	–	3.7
GPTQSVHGMCGGIGYSGPTVCASGTTCQVLDPFTSQCLPGAS (disulfide (positions not given here)) [PCSK9 CBD 24]	–	14.8
GPTQSVYGMCGGIGYSGPTVCASGTTCQVLDPTTSQCLPGAS (disulfide (positions not given here)) [PCSK9 CBD 25]	–	14.9
GPTQSYGQCGGIGYSGPTVCASGTTCQVLWPQVSWCLPGAST (disulfide (positions not given here)) [PCSK9 CBD 6]	–	2.9
